According to ChEMBL document CHEMBL3885861, “Open TG-GATES”:

Species: Rattus norvegicus
Test: Open TG-GATES - Regimen: Single
Format: toxicity, organism-based, Sprague-Dawley
Set-up: regimen Single, gender Male, age 6 weeks
Conditions: in vivo, po, 60 mg/kg, route gavage, dose level High; for APTT / Bas / Eos / Fbg / Hb / Ht / Lym / MCH / MCHC / MCV / Mono / Neu / PT / Plat / RBC / Ret / WBC: tissue Blood; for LIVER: tissue Liver; for A/G / ALP / ALT / AST / BUN / CRE / Ca / Cl / DBIL / GLC / IP / K / LDH / Na / PL / RALB / TBIL / TC / TG / TP / gamma-GTP: tissue Plasma

Structure (SMILES): O=[N+]([O-])c1ccc(O)c([N+](=O)[O-])c1 [2,4-DINITROPHENOL]
- TERMINAL_BW (3 h): 203.7 g
- APTT (3 h): 17.2 s
- Bas (3 h): 0%
- Eos (3 h): 0.4%
- Fbg (3 h): 232.6 mg/dL
- Hb (3 h): 12.5 g/dL
- Ht (3 h): 37.7%
- Lym (3 h): 79.6%
- MCH (3 h): 21.3 pg
- MCHC (3 h): 33.4%
- MCV (3 h): 63.9 fL
- Mono (3 h): 7%
- Neu (3 h): 13.2%
- PT (3 h): 12.4 s
- Plat (3 h): 127.8 x10_4/uL
- RBC (3 h): 590 x10_4/ul
- Ret (3 h): 8.6%
- WBC (3 h): 75.8 x10_2/uL
- LIVER (3 h): 8.6 g
- A/G (3 h): 2.6
- ALP (3 h): 1665.4 IU/L
- ALT (3 h): 39.6 IU/L
- AST (3 h): 95.6 IU/L
- BUN (3 h): 19 mg/dL
- CRE (3 h): 0.5 mg/dL
- Ca (3 h): 11.4 mg/dL
- Cl (3 h): 103.6 meq/L
- DBIL (3 h): 0.014 mg/dL
- GLC (3 h): 236.8 mg/dL
- IP (3 h): 11.4 mg/dL
- K (3 h): 4.5 meq/L
- LDH (3 h): 215 IU/L
- Na (3 h): 137 meq/L
- PL (3 h): 129.4 mg/dL
- RALB (3 h): 3.9 g/dL
- TBIL (3 h): 0.026 mg/dL
- TC (3 h): 77.6 mg/dL
- TG (3 h): 56.8 mg/dL
- TP (3 h): 5.4 g/dL
- gamma-GTP (3 h): 0 IU/L
- TERMINAL_BW (6 h): 206.8 g
- APTT (6 h): 16.1 s
- Bas (6 h): 0%
- Eos (6 h): 0.4%
- Fbg (6 h): 247.6 mg/dL
- Hb (6 h): 12.6 g/dL
- Ht (6 h): 38%
- Lym (6 h): 70.4%
- MCH (6 h): 21.8 pg
- MCHC (6 h): 33.3%
- MCV (6 h): 65.6 fL
- Mono (6 h): 9.4%
- Neu (6 h): 19.8%
- PT (6 h): 11.7 s
- Plat (6 h): 116.6 x10_4/uL
- RBC (6 h): 580.4 x10_4/ul
- Ret (6 h): 10%
- WBC (6 h): 114 x10_2/uL
- LIVER (6 h): 8.7 g
- A/G (6 h): 2.7
- ALP (6 h): 1501.4 IU/L
- ALT (6 h): 36.2 IU/L
- AST (6 h): 96.6 IU/L
- BUN (6 h): 20.6 mg/dL
- CRE (6 h): 0.6 mg/dL
- Ca (6 h): 11.4 mg/dL
- Cl (6 h): 106.6 meq/L
- DBIL (6 h): 0.012 mg/dL
- GLC (6 h): 245.4 mg/dL
- IP (6 h): 10.2 mg/dL
- K (6 h): 4.3 meq/L
- LDH (6 h): 245.4 IU/L
- Na (6 h): 138.6 meq/L
- PL (6 h): 150.4 mg/dL
- RALB (6 h): 4 g/dL
- TBIL (6 h): 0.026 mg/dL
- TC (6 h): 93.4 mg/dL
- TG (6 h): 31.4 mg/dL
- TP (6 h): 5.5 g/dL
- gamma-GTP (6 h): 0 IU/L
- TERMINAL_BW (9 h): 192.8 g
- APTT (9 h): 16.1 s
- Bas (9 h): 0%
- Eos (9 h): 0.5%
- Fbg (9 h): 244.8 mg/dL
- Hb (9 h): 12.6 g/dL
- Ht (9 h): 37.6%
- Lym (9 h): 74.5%
- MCH (9 h): 21.8 pg
- MCHC (9 h): 33.5%
- MCV (9 h): 65 fL
- Mono (9 h): 5.8%
- Neu (9 h): 19.2%
- PT (9 h): 11.9 s
- Plat (9 h): 117.2 x10_4/uL
- RBC (9 h): 579.2 x10_4/ul
- Ret (9 h): 8.8%
- WBC (9 h): 92.8 x10_2/uL
- LIVER (9 h): 7.3 g
- A/G (9 h): 2.5
- ALP (9 h): 1343 IU/L
- ALT (9 h): 32.2 IU/L
- AST (9 h): 87.2 IU/L
- BUN (9 h): 20 mg/dL
- CRE (9 h): 0.5 mg/dL
- Ca (9 h): 11.1 mg/dL
- Cl (9 h): 108 meq/L
- DBIL (9 h): 0.02 mg/dL
- GLC (9 h): 247.5 mg/dL
- IP (9 h): 9.7 mg/dL
- K (9 h): 4.7 meq/L
- LDH (9 h): 154.8 IU/L
- Na (9 h): 138.2 meq/L
- PL (9 h): 146.5 mg/dL
- RALB (9 h): 3.8 g/dL
- TBIL (9 h): 0.0225 mg/dL
- TC (9 h): 88.2 mg/dL
- TG (9 h): 56.2 mg/dL
- TP (9 h): 5.4 g/dL
- gamma-GTP (9 h): 0.5 IU/L
- TERMINAL_BW (24 h): 207.1 g
- APTT (24 h): 15.7 s
- Bas (24 h): 0%
- Eos (24 h): 0.8%
- Fbg (24 h): 263.6 mg/dL
- Hb (24 h): 13.3 g/dL
- Ht (24 h): 39.9%
- Lym (24 h): 71%
- MCH (24 h): 21.6 pg
- MCHC (24 h): 33.3%
- MCV (24 h): 64.7 fL
- Mono (24 h): 8%
- Neu (24 h): 20.4%
- PT (24 h): 11.7 s
- Plat (24 h): 123.2 x10_4/uL
- RBC (24 h): 617.2 x10_4/ul
- Ret (24 h): 8.5%
- WBC (24 h): 120.4 x10_2/uL
- LIVER (24 h): 10.7 g
- A/G (24 h): 2.4
- ALP (24 h): 1582.4 IU/L
- ALT (24 h): 35.6 IU/L
- AST (24 h): 73.8 IU/L
- BUN (24 h): 19.2 mg/dL
- CRE (24 h): 0.4 mg/dL
- Ca (24 h): 11.6 mg/dL
- Cl (24 h): 105.2 meq/L
- DBIL (24 h): 0.018 mg/dL
- GLC (24 h): 176.2 mg/dL
- IP (24 h): 6.4 mg/dL
- K (24 h): 4.6 meq/L
- LDH (24 h): 149.2 IU/L
- Na (24 h): 140 meq/L
- PL (24 h): 173 mg/dL
- RALB (24 h): 4 g/dL
- TBIL (24 h): 0.018 mg/dL
- TC (24 h): 93.4 mg/dL
- TG (24 h): 169.6 mg/dL
- TP (24 h): 5.7 g/dL
- gamma-GTP (24 h): 0.8 IU/L
